Tests used:
[1] = molecular target: T1, porcine pancreatic α-amylase (Sus scrofa, UniProt P00690); assay: 1H NMR of aggregation of PC C1 with α-amylase; type: binding; settings: for adsorption of PC C1 on the surface of α-amylase: 1 mM (0.75 μmol) PC C1; for PC C1 signal intensities after addition of α-amylase: 275 K
T1 sequence (P00690 16-511): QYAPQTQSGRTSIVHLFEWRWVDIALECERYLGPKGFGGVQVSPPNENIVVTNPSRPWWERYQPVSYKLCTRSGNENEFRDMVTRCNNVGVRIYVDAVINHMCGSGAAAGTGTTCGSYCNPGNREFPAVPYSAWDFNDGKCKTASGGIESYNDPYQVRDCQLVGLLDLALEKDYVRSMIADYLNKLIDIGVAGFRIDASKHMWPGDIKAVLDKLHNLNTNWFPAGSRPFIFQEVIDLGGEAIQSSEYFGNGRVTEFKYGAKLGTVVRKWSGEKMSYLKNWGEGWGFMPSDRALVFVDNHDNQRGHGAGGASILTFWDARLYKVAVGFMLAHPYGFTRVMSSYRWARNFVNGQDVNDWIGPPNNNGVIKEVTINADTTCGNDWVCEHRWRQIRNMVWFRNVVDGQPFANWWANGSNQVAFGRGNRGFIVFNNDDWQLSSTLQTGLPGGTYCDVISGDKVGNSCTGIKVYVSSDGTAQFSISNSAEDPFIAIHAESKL
Experimental: ^1H NMR experiments were conducted to investigate the aggregation of PC C1 with α-amylase. First, 1 mM PC C1 (0.75 μmol) was measured, and then, α-amylase was added at concentrations of 10 and 20 μM. The relative decrease in intensity of PC C1 signals in the range of 6.866–7.040 ppm (E2′, H6′, B2′, B5′, E5′, E6′, and H5′) was used to calculate the proportion of PC C1 aggregated with α-amylase. Blank measurements were performed with 10 and 20 μM α-amylase dissolved in the same buffer without PC C1. Data were acquired using a Bruker Avance III HD 600 MHz NMR spectrometer equipped with a 5 mm BBFO probe (Smart Probe) with ATM and a z-gradient. Spectra were recorded at 275 K (2 °C) in 0.1 M phosphate buffer/0.04 M NaCl phosphate buffer, pH 7, in D2O:H2O (9:1). The pulse program zgesgp was used with a spectral width of 16 ppm, and all spectra were recorded with 512 scans, an acquisition time of 1.70 s, and a recycle delay (D1) of 1 s. Data were analyzed using TopSpin software (version 4.4.1, Bruker).

α-amylase = tested on: α-amylase; design: method as in PMID 28618113; settings: α-amylase concentration of 20 μM in the sample cell; cited from earlier work

Row | SMILES | ratio of PC C1 to α-amylase ([1]; 10 μM α-amylase) | adsorption of PC C1 on the surface of α-amylase ([1]; 10 μM α-amylase) [µmol] | ratio of PC C1 to α-amylase ([1]; 20 μM α-amylase) | adsorption of PC C1 on the surface of α-amylase ([1]; 20 μM α-amylase) [µmol] | PC C1 signal intensities after addition of α-amylase ([1]; 1 mM PC C1, 10 μM α-amylase) [%] | PC C1 signal intensities after addition of α-amylase ([1]; 1 mM PC C1, 20 μM α-amylase) [%] | binding to α-amylase by ITC (α-amylase)
1 | Oc1cc(O)c2c(c1)O[C@H](c1ccc(O)c(O)c1)[C@H](O)[C@H]2c1c(O)cc(O)c2c1O[C@H](c1ccc(O)c(O)c1)[C@H](O)[C@H]2c1c(O)cc(O)c2c1O[C@H](c1ccc(O)c(O)c1)[C@H](O)C2 [PC C1, procyanidin C1] | 26 | 0.20 | 18 | 0.28 | 73 | 63 | –
2 | Oc1cc(O)c2c(c1)O[C@H](c1ccc(O)c(O)c1)[C@H](O)C2 [EC, (−)-Epicatechin] | – | – | – | – | – | – | weak binder
